The results in this text go back to a melting point compilation (Tetko et al.; mined from patent text by program, amines drawn as free bases though some values may be those of a salt).

Structures are written as SMILES. A value given as a limit tells only on which side of the number the result lay.

Turning to `O=C1c2ccccc2N(Cc2ccc(F)cc2)C2=NCCN12`, the melting point (as a rule, the temperature, or range, at which the solid turns liquid) is 192 to 195 °C.

As for `O=C(O)C(CC(c1ccc(OCc2ccc3ccccc3n2)cc1)c1ccc(OCc2ccc3ccccc3n2)cc1)=NO`, the melting point lay in the range of 104 to 108 °C.

The compound `CCCCCCCOc1cc2c(cc1C=Cc1ccc(C(=O)O)cc1)C(C)(C)CCC2(C)C` showed a melting point of 153 to 155 °C.

`CC(C)(C)OC(=O)N1CCc2c(n(CCOc3ccccc3)c3c(Cl)ccc(Cl)c23)CC1` registered a melting point of 132 to 133 °C.

Compound `CCCOc1cc(C=CC(=O)N2CCN(c3ccc(NC(=N)c4cccs4)cc3)CC2)cc(OCCC)c1O` gave a melting point of 72 to 73 °C.

With `COc1cc(Nc2c(C#N)cnc3cc4cc(OCCN5CCOCC5)c(OC)cc4cc23)c(Cl)cc1C`, the melting point fell in the range of 220 to 222 °C.

Compound `COC(=S)c1sc(C)c(Cl)c1OC` had a melting point of 82 to 83 °C.

`CCOC(=O)C(C)(C)c1ccc(OCc2ccccc2)cc1` showed a melting point of 54 to 55 °C.

`O=[N+]([O-])c1ccc(F)c(-n2nc3c(c2Cl)CCCC3)c1` showed a melting point of 109 °C.

Take `CC(=O)c1ccc2ccc3ccccc3c2n1`: the melting point fell in the range of 113 to 115 °C.

For the compound `O=C1c2ccccc2C(=O)N1OCc1ccc2c(c1F)OC(c1ccccc1)(c1ccccc1)O2`, the melting point is 177 to 179 °C.

Take `CS(=O)(=O)c1ccc(C(=O)C2C(=O)CCCC2=O)c(Cl)c1OCc1cc(-c2ccccc2)no1`: the melting point was 72 to 78 °C.

In turn, `Cc1oc(-c2ccco2)nc1COc1ccc(COc2nn(Cc3ccccc3)cc2C(=O)O)cc1OCc1ccccc1` displayed a melting point of 184 to 185 °C.

`CC(C)Cc1nn(C)c(=O)c2c(SCCCO)c(Cc3ccccc3)sc12`: the melting point was 60 to 65 °C.

For the compound `CC(C)(C)c1cc(C2=NNC(=O)CC2)cc(C(C)(C)C)c1O`, the melting point lay in the range of 200 to 203 °C.

Turning to `ClCCCn1c2ccccc2c2cc(-c3nc(C4CC4)no3)ncc21`, the melting point lay in the range of 165 to 169 °C.

Turning to `CC1CCCC(NC(CCc2ccccc2)C(=O)O)C(=O)N1CC(=O)O` (configuration not stated), the melting point lay within 215 to 217 °C.

Turning to `O=C1NCc2c(Cl)nc3ccccc3c21`, the melting point lay within 169 to 171 °C.

Compound `CCOC(=O)N1N=C(c2ccc(N)cc2)c2cc(Cl)ccc2CC1C` (configuration not stated) showed a melting point of 95 to 98 °C.

`CC(C)Oc1nc(-c2ccc(Cl)cc2)c(CCC(=O)O)o1` gave a melting point of 116 to 117 °C.

`CN1CCC(OC(c2ccccc2)c2nc3cccc(O)c3[nH]2)CC1` (configuration not stated) came in with a melting point of 170 °C.

Consider `Cc1nccc(CO)c1OCc1ccccc1`, for which the melting point lay within 130 to 131 °C.

In turn, `O=C(C=Cc1cccc(-c2ccc(F)cc2)c1)Nc1ccc(CN2CCCCC2)cc1` had a melting point of 166 to 167 °C.

Compound `CCOC(=O)C1=C(C)Nc2c(c(C)nn2C)C1c1ccccc1[N+](=O)[O-]` (configuration not stated) showed a melting point of 194 to 198 °C.

As to `Cc1ccc(C(=S)c2[nH]c3cc(Cl)ccc3c2N)cc1`, the melting point was in the range of 172 to 173 °C.

`CCCCc1ncc(/C=C(\Cc2cccs2)C(N)=O)n1Cc1cccc(Cl)c1Cl` came in with a melting point of 185 to 187 °C.

`COc1ccc(C2NCCS2)cc1` (configuration not stated) gave a melting point of 94 to 95 °C.

As to `O=C(Cn1nccc1-c1ccc(Oc2ccc(F)cc2)cc1)N1CCCC1`, the melting point was in the range of 90 to 95 °C.

Turning to `CCOc1ccc(Oc2ccc(OCc3cc(F)ccc3F)cc2)c(N)c1`, the melting point is 72 to 73.5 °C.

`CC1(O)C(O)C(CO)OC1n1ccc2c(N=[N+]=[N-])ncnc21` (configuration not stated) came in with a melting point of 179 to 180 °C.

`O=c1n(-c2ccc(Cl)c(Cl)c2)c(=O)n(SC(Cl)(Cl)Cl)n1SC(Cl)(Cl)Cl` displayed a melting point of 167 °C.

The compound `COc1ccc(-c2c(C)c3cc(O)ccc3n2Cc2ccc(OCCN3CCCCC3)cc2)c(OC)c1` yielded a melting point of 85 to 92 °C.

For the compound `COCCN1CCN(CCc2ccc(Nc3ncc4c(n3)-c3ccccc3C(c3cccc(Br)c3)C4)cc2)CC1` (configuration not stated), the melting point was in the range of 105 to 107 °C.

The compound `CC1(C)OC(c2ccc(S(N)(=O)=O)cc2)=C(I)C1=O` returned a melting point of 179 to 180 °C.

In turn, `N#Cc1ccc(CN2CCC(=O)C(C(c3ccc(F)cc3)c3ccc(F)cc3)C2)cc1` (configuration not stated) returned a melting point of 118 to 120 °C.

Regarding `O=C(O)c1ccc(C2=CCC3CCC2C3)cc1` (configuration not stated), the melting point was 180 to 181 °C.

For `COC(=O)Nc1cc(OC2CCCC2)c(Cl)cc1F`, the melting point lay within 120 to 123 °C.

The compound `CCOC(=O)C(=O)Nc1ccc(Cl)cc1[N+](=O)[O-]` yielded a melting point of 156 to 157 °C.

For the compound `Brc1ccc(Cn2cnc3ccccc32)cc1`, the melting point lay in the range of 93 to 95 °C.

Compound `N#Cc1ccc(CCO)nc1` had a melting point of 92 to 93 °C.

Compound `O=c1[nH]c2cc(F)ccc2n(C(c2ccccc2)c2ccccc2)c1=O` registered a melting point of 144 °C.

Consider `COC(=O)c1ccc2ccn(Cc3ccc(OCc4ccc5ccccc5n4)cc3)c2c1`, for which the melting point lay in the range of 125 to 126 °C.

Compound `Fc1ccc(-c2cc(N3CCNCC3)nnc2C(F)(F)F)cc1` yielded a melting point of 137 °C.

`COC(=O)CNC(=O)c1ccc(C(=O)NS(=O)(=O)c2ccc(CCNC(=O)CC3CCCCC3)cc2)cn1` showed a melting point of 178 to 179 °C.

The compound `Fc1ccccc1-c1ccc(Br)cc1F` had a melting point of 45 to 46 °C.

Compound `O=c1[nH]c2c(n3ccnc13)C(NS(=O)(=O)c1ccccc1)c1ccccc1-2` (configuration not stated) gave a melting point of 216 °C.

In turn, `C[C@@H]1CN(C(=O)[C@@](C)(O)C(F)(F)F)[C@@H](C)CN1S(=O)(=O)c1ccc(C(=O)N(C)C)cc1` came in with a melting point of 86 to 87 °C.

`CC(=O)N[C@@H](CSC(C)=O)C(=O)NCCSC(=O)c1ccccc1`: the melting point fell in the range of 166 to 168 °C.

Compound `Oc1nc(-c2ccc(Cl)cc2)nc2c1CCC2` yielded a melting point of 282 °C.

As to `CCCn1c(N)cc(=O)n(CC2CCCCC2)c1=O`, the melting point is 121 to 122 °C.

Turning to `CSc1nc(OCC(F)(F)F)nc2sc(C)cc12`, the melting point was 97 °C.

As for `CN1CCOc2ccc(S(=O)(=O)n3c(Cc4ccc(C(=O)O)s4)cc4cc(C(F)(F)F)ccc43)cc21`, the melting point was 120 to 144 °C.

The compound `Nc1ccc2ccc(Oc3ccc(F)cc3)nc2n1` registered a melting point of 210 °C.

Take `O=C1NN=C(C=Cc2ccc([N+](=O)[O-])cc2)CS1`: the melting point lay in the range of 231 to 240 °C.

On to `Cc1cccc(NC(=O)NC2N=C(c3ccccc3)c3ccccc3N(C)C2=O)c1` (configuration not stated), for which the melting point lay within 207 to 209 °C.

In turn, `CN(c1cc2occc(=O)c2cc1Oc1ccccc1)S(C)(=O)=O` came in with a melting point of 187 to 189 °C.

The compound `O=C1N(Cc2ccccc2)C(O)C2CSC(c3ccccc3)N12` (mixture of isomers) came in with a melting point of 151 to 153 °C.

For the compound `COc1ccnc(CCc2nc3cc(-c4ccc(S(=O)(=O)N5CCN(C)CC5)cc4)cnc3[nH]2)c1`, the melting point fell in the range of 193 to 195 °C.

`NC1(C(=O)O)CC(O)C2C(C(=O)O)C21` (configuration not stated) showed a melting point of 78 to 80 °C.

`CS(=O)(=O)c1ccccc1CNC(=O)[C@@H]1CCCN(c2cccc3c2C(=O)N(Cc2ccncc2)C3=O)C1` showed a melting point of 101 to 102 °C.

In the case of `C#CCOCC(C)(COCC#C)NC(=O)C(Oc1ccc2ncc(C#C)cc2c1)SC` (configuration not stated), the melting point was 95 to 100 °C.

In the case of `Cc1c(C)c(NC(=O)CC(C)(C)C)c2c(c1C)C(c1ccc(C(C)C)cc1)CO2` (configuration not stated), the melting point is 190 to 191 °C.

In turn, `CN(CCNc1ccc([N+](=O)[O-])cc1)S(C)(=O)=O` had a melting point of 109 °C.

On to `CCOC(=O)C1CCN(c2cc(-n3c(=O)cc(C(F)(F)F)[nH]c3=O)c(F)cc2C#N)CC1`, for which the melting point was found to be 124 °C.

On to `CCC(=O)Nc1ccc2c(Nc3cccc(Br)c3)ncnc2c1`, for which the melting point lay within 282 to 283 °C.

Take `CC(C)(C)c1cc(CS[C@@H]2CCCCCC[C@H]2SCc2cc(C(C)(C)C)cc(C(C)(C)C)c2O)c(O)c(C(C)(C)C)c1` (relative stereo): the melting point lay within 122 to 123 °C.

`COc1ccc(NN=C(Sc2cc(C)ccc2C)C(C)=O)cc1` had a melting point of 131 to 134 °C.

Take `CC(=NO)c1nccc(OCC(F)(F)F)n1`: the melting point was 179 to 181 °C.

`C=C(C)c1ccc(O)c(-n2nc3ccccc3n2)c1` showed a melting point of 124 °C.

Regarding `Nc1nc(Nc2ccc(S(N)(=O)=O)cc2)sc1C(=O)c1ccc(C(=O)Oc2ccccc2)cc1`, the melting point was more than 300 °C.

Compound `Cc1ccc(OCCOCCCCCCNCc2c(CO)ccc(O)c2CO)cc1C` registered a melting point of 65 to 68 °C.

On to `COc1ccc(C(=CCCC(=O)O)c2ccc(OC)cc2)cc1`, for which the melting point fell in the range of 113 to 114 °C.

Regarding `CCCCNC(=O)c1ncc[nH]1`, the melting point was in the range of 188 to 190 °C.

`CN1CC(c2cccc(C(F)(F)F)c2)C(=O)C(c2ccccc2Cl)C1` (configuration not stated) came in with a melting point of 90 to 92 °C.

Turning to `Nc1ncc(CCC2CCCC2)s1`, the melting point is 77 to 78 °C.

On to `CCOC(=O)c1cc(Cl)n2ncnc2n1`, for which the melting point fell in the range of 92.5 to 94 °C.

Turning to `CCCCNC(=O)C(O[Si](C)(C)C(C)(C)C)C(c1ccccc1)c1ccccc1` (configuration not stated), the melting point is 73 to 74 °C.

With `CCCn1nc(C2CC2)c(C(=O)OCC)c1Cc1ccc(-c2ccccc2S(N)(=O)=O)cc1`, the melting point is 70 to 77 °C.

`CNc1nc(-c2cccc(NC(=O)c3ccc(Cl)cc3)c2)c2cc(OC)c(OC)cc2n1` displayed a melting point of 193 to 195 °C.

Compound `Cc1cccnc1-c1ccc2ccnc(N)c2n1` had a melting point of 170 to 171 °C.

As for `Cn1nc(-c2cccc(F)c2)n(C)c1=S`, the melting point was 126 to 128 °C.

As for `CCOP(=O)(CCN(OCc1ccccc1)S(=O)(=O)c1ccc(C)cc1)OCC`, the melting point was in the range of 78 to 80 °C.

The compound `CCCCOc1ccc(-c2nc(CCOS(=O)(=O)c3ccc(C)cc3)c(C)o2)cc1` showed a melting point of 84.9 °C.

Turning to `COc1ccc(C(=O)c2c(-c3ccccc3)sc3cc(OC)ccc23)cc1`, the melting point came out at 132 °C.

Regarding `CCCOc1ccc(S(=O)(=O)NCCc2c[nH]cn2)cc1-c1nc2cc(N)c([N+](=O)[O-])cc2c(=O)[nH]1`, the melting point fell in the range of 169 to 172 °C.

For `CN(C)c1cncc(-c2nc(=O)c3ccccc3s2)n1`, the melting point lay in the range of 248 to 249 °C.

In turn, `CCCc1nc2c(N)nc3cc(-c4cccc(NC(C)=O)c4)ccc3c2s1` displayed a melting point of 173 to 176 °C.
